Measured values as given in patent publication US8192962B2, “Processes for detecting toxic substances” (Daikin Industries, Ltd., priority 2001, dated 2012).

Test system: Transport facilitation protein genes
Assay: DNA chip mRNA expression in yeast, transport facilitation protein genes (Table 5)
Format: cell-based, Saccharomyces cerevisiae S288C
Protocol: Yeast (Saccharomyces cerevisiae S288C (α SUC2mal mel gap2 CUP1)) were incubated at 25° C. on YPD medium (yeast extract 1%, polypepton 2%, glucose 2%). One of toxic chemical substances was added to the cells at logarithmic growth phase, and the cells were further incubated for two hours. Cells were cultured without any chemical substance in the same condition, and were used as control. Concentrations of the chemical substances were defined to inhibit the growth of the yeast but not lead to death.
After completion of the incubation, the culture was centrifuged to collect the cells. To the cells, sodium acetate buffer (50 mM sodium acetate, 10 mM EDTA, 1% SDS) was added, and the mixture was shaken at 65° C. for five minutes, followed by returning to room temperature, and obtaining the supernatant, of which the procedures were repeated two times. To the supernatant, ½ amount of a solution of phenol/chloroform was added, and the mixture was centrifuged to give a supernatant, which was added with an equal amount of chloroform, and the mixture was centrifuged to give a supernatant. To the supernatant, an equal amount of isopropanol containing 0.3 M sodium acetate was added, and the mixture was allowed to stand at room temperature for 30 minutes, after which the mixture was centrifuged to give a sediment of the whole RNAs. Seventy % ethanol was added to the sediment, and the mixture was again centrifuged to give a sediment, which was then dried and dissolved in water. mRNA was isolated from the whole RNAs as followings. In view of the fact that a poly A chain is attached to the 3′ terminus of mRNA, a polynucleotide having a poly T structure which was immobilized on the surface of latex beads was used to trap the mRNA, and then the mRNA was washed and eluted with spine column (Oligotex-dT30<Super>mRNA Purification Kit, Takara). Reverse transcription of the mRNA was conducted with a reverse transcriptase (Super Script II Reverse Transcriptase; catalogue No. 18064-014, GibcoBRL) using fluorescence-labeled nucleotides to give cDNAs that were introduced with Cy3-dUTP or Cy5-dUTP during the reverse transcription.
The labeled cDNAs were dissolved in TE buffer (10mM Tris-HCl/1 mM EDTA, pH8.0), and the solution was dropped on the DNA chip containing the whole genes of yeast (DNA Chip Research Inc. Japan) so that the cDNAs were hybridized on the DNA chip at 65° C. for over 12 hours. The fluoresces intensity of the DNA chip was read with a scanner, and the ratio relative to the fluorescence intensity resulting from the absence of chemical substance was estimated as the following, which is shown in Tables 1 to 9: […]

## Cl[C@H]1[C@H](Cl)[C@@H](Cl)[C@@H](Cl)[C@H](Cl)[C@H]1Cl [(7), γ-hexachlorocyclohexane]
Yeast gene YGR260W
  The level of expressed mRNA in the presence of chemical substance/The level of expressed mRNA in the absence of chemical substance: 0.9
Yeast gene YGR281W
  The level of expressed mRNA in the presence of chemical substance/The level of expressed mRNA in the absence of chemical substance: 0.9
Yeast gene YHL035C
  The level of expressed mRNA in the presence of chemical substance/The level of expressed mRNA in the absence of chemical substance: 1.7
Yeast gene YHL040C
  The level of expressed mRNA in the presence of chemical substance/The level of expressed mRNA in the absence of chemical substance: 4.0
Yeast gene YHL047C
  The level of expressed mRNA in the presence of chemical substance/The level of expressed mRNA in the absence of chemical substance: 16.8
Yeast gene YHR026W
  The level of expressed mRNA in the presence of chemical substance/The level of expressed mRNA in the absence of chemical substance: 0.9
Yeast gene YHR092C
  The level of expressed mRNA in the presence of chemical substance/The level of expressed mRNA in the absence of chemical substance: 0.5
Yeast gene YHR094C
  The level of expressed mRNA in the presence of chemical substance/The level of expressed mRNA in the absence of chemical substance: 0.8
Yeast gene YHR175W
  The level of expressed mRNA in the presence of chemical substance/The level of expressed mRNA in the absence of chemical substance: 1.6
Yeast gene YIL006W
  The level of expressed mRNA in the presence of chemical substance/The level of expressed mRNA in the absence of chemical substance: 0.8
Yeast gene YIL022W
  The level of expressed mRNA in the presence of chemical substance/The level of expressed mRNA in the absence of chemical substance: 0.7
Yeast gene YIL056W
  The level of expressed mRNA in the presence of chemical substance/The level of expressed mRNA in the absence of chemical substance: 0.6
Yeast gene YIL088C
  The level of expressed mRNA in the presence of chemical substance/The level of expressed mRNA in the absence of chemical substance: 1.7
Yeast gene YJL034W
  The level of expressed mRNA in the presence of chemical substance/The level of expressed mRNA in the absence of chemical substance: 1.3
Yeast gene YJL212C
  The level of expressed mRNA in the presence of chemical substance/The level of expressed mRNA in the absence of chemical substance: 0.7
Yeast gene YJL219W
  The level of expressed mRNA in the presence of chemical substance/The level of expressed mRNA in the absence of chemical substance: 0.9
Yeast gene YJR077C
  The level of expressed mRNA in the presence of chemical substance/The level of expressed mRNA in the absence of chemical substance: 0.7
Yeast gene YJR106W
  The level of expressed mRNA in the presence of chemical substance/The level of expressed mRNA in the absence of chemical substance: 1.0
Yeast gene YJR121W
  The level of expressed mRNA in the presence of chemical substance/The level of expressed mRNA in the absence of chemical substance: 1.0
Yeast gene YKL016C
  The level of expressed mRNA in the presence of chemical substance/The level of expressed mRNA in the absence of chemical substance: 1.5
Yeast gene YKL146W
  The level of expressed mRNA in the presence of chemical substance/The level of expressed mRNA in the absence of chemical substance: 0.9
Yeast gene YKR039W
  The level of expressed mRNA in the presence of chemical substance/The level of expressed mRNA in the absence of chemical substance: 1.0
Yeast gene YKR067W
  The level of expressed mRNA in the presence of chemical substance/The level of expressed mRNA in the absence of chemical substance: 2.0
Yeast gene YLL028W
  The level of expressed mRNA in the presence of chemical substance/The level of expressed mRNA in the absence of chemical substance: 1.0
Yeast gene YLR081W
  The level of expressed mRNA in the presence of chemical substance/The level of expressed mRNA in the absence of chemical substance: 0.7
Yeast gene YLR295C
  The level of expressed mRNA in the presence of chemical substance/The level of expressed mRNA in the absence of chemical substance: 1.1
Yeast gene YLR348C
  The level of expressed mRNA in the presence of chemical substance/The level of expressed mRNA in the absence of chemical substance: 0.9
Yeast gene YLR378C
  The level of expressed mRNA in the presence of chemical substance/The level of expressed mRNA in the absence of chemical substance: 0.7
Yeast gene YMR011W
  The level of expressed mRNA in the presence of chemical substance/The level of expressed mRNA in the absence of chemical substance: 0.8
Yeast gene YMR162C
  The level of expressed mRNA in the presence of chemical substance/The level of expressed mRNA in the absence of chemical substance: 0.8
Yeast gene YMR203W
  The level of expressed mRNA in the presence of chemical substance/The level of expressed mRNA in the absence of chemical substance: 0.8
Yeast gene YNL055C
  The level of expressed mRNA in the presence of chemical substance/The level of expressed mRNA in the absence of chemical substance: 1.2
Yeast gene YNL259C
  The level of expressed mRNA in the presence of chemical substance/The level of expressed mRNA in the absence of chemical substance: 3.8
Yeast gene YNR072W
  The level of expressed mRNA in the presence of chemical substance/The level of expressed mRNA in the absence of chemical substance: 1.5
Yeast gene YOL119C
  The level of expressed mRNA in the presence of chemical substance/The level of expressed mRNA in the absence of chemical substance: 2.2
Yeast gene YOL156W
  The level of expressed mRNA in the presence of chemical substance/The level of expressed mRNA in the absence of chemical substance: 1.0
Yeast gene YOL163W
  The level of expressed mRNA in the presence of chemical substance/The level of expressed mRNA in the absence of chemical substance: 0.9
Yeast gene YOR035C
  The level of expressed mRNA in the presence of chemical substance/The level of expressed mRNA in the absence of chemical substance: 1.3
Yeast gene YOR130C
  The level of expressed mRNA in the presence of chemical substance/The level of expressed mRNA in the absence of chemical substance: 1.3
Yeast gene YOR153W
  The level of expressed mRNA in the presence of chemical substance/The level of expressed mRNA in the absence of chemical substance: 2.6
Yeast gene YOR270C
  The level of expressed mRNA in the presence of chemical substance/The level of expressed mRNA in the absence of chemical substance: 1.0
Yeast gene YOR273C
  The level of expressed mRNA in the presence of chemical substance/The level of expressed mRNA in the absence of chemical substance: 0.4
Yeast gene YOR316C
  The level of expressed mRNA in the presence of chemical substance/The level of expressed mRNA in the absence of chemical substance: 1.4
Yeast gene YOR332W
  The level of expressed mRNA in the presence of chemical substance/The level of expressed mRNA in the absence of chemical substance: 0.9
Yeast gene YOR348C
  The level of expressed mRNA in the presence of chemical substance/The level of expressed mRNA in the absence of chemical substance: 0.8
Yeast gene YPL036W
  The level of expressed mRNA in the presence of chemical substance/The level of expressed mRNA in the absence of chemical substance: 0.3
Yeast gene YPL134C
  The level of expressed mRNA in the presence of chemical substance/The level of expressed mRNA in the absence of chemical substance: 1.2
Yeast gene YPL271W
  The level of expressed mRNA in the presence of chemical substance/The level of expressed mRNA in the absence of chemical substance: 1.2
Yeast gene YPR192W
  The level of expressed mRNA in the presence of chemical substance/The level of expressed mRNA in the absence of chemical substance: 0.9
Yeast gene YPR194C
  The level of expressed mRNA in the presence of chemical substance/The level of expressed mRNA in the absence of chemical substance: 0.7
